{
  "source": "ChEMBL document CHEMBL1126949",
  "about": "(J Med Chem, 1993)",
  "molecular_target": "D(3) dopamine receptor (Rattus norvegicus, UniProt P19020)",
  "sequence (P19020 whole entry)": "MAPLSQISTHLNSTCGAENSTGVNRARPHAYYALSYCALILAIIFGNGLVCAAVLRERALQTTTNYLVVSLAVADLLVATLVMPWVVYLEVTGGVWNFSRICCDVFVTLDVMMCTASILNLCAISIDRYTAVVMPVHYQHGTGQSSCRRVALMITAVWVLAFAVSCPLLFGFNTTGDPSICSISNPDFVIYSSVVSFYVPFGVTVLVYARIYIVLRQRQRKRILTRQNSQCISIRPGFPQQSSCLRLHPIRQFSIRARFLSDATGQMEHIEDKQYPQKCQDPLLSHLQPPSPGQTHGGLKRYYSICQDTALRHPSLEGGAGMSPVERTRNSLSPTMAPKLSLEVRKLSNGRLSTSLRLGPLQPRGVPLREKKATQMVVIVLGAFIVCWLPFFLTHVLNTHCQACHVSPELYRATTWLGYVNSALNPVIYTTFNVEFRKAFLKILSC",
  "assay": "biochemical",
  "data": [
    {"smiles": "CCCN(CCC)C1CCc2cccc(O)c2C1", "note": "(stereo unspecified) [8-OH-DPAT]", "values": [
      {"measurement": "Ki", "result": 248, "unit": "nM"}
    ]}
  ]
}
